Laboratory results published in patent US8183263B2 (priority 2007, dated 2012).

System: HCV replicon
Test: HCV replicon replication assay (NPT level by captured ELISA)
Format: cell-based
Conditions: Hepatitis C virus, 72 h; Huh-7 HCV replicon-containing cells, three days incubation; read-out: Activity (inhibition of HCV replicon replication)
Summary of the method: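 Huh-7 cells carrying HCV subgenomic replicon (NS3–NS5B, neo reporter) treated 3 days at 37 °C with 6 concentrations from 10 to 0.03 micromolar in G418-free medium, equal DMSO across wells. Replication measured on day four as NPTII level by in-cell captured ELISA on fixed cells; interferon alpha as positive control.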

`CCCCCCCCOc1ccc(Nc2nc(-c3ccc4nncn4c3)c(F)s2)cc1C(F)(F)F` [Cmp 214, 4-([1,2,4]triazolo[4,3-a]pyridin-6-yl)-5-fluoro-N-(4-(octyloxy)-3-(trifluoromethyl)phenyl)thiazol-2-amine] and `CCCCCCCC(C)(C)Oc1ccc(Nc2nc(-c3cccnc3)c(F)s2)cc1C(F)(F)F` [Cmp 221, 5-fluoro-N-(4-(2-methylnonan-2-yloxy)-3-(trifluoromethyl)phenyl)-4-(pyridin-3-yl)thiazol-2-amine] cannot be ordered by EC50: less than 1000 nM for the first, less than 1000 nM for the second.

`CCCCCCCC(=O)c1ccc(Nc2nc(-c3cccnc3)c(F)s2)cc1C(F)(F)F` [Cmp 215, 1-(4-(5-fluoro-4-(pyridin-3-yl)thiazol-2-ylamino)-2-(trifluoromethyl)phenyl)octan-1-one] and `CCCCCCCC(C)Oc1ccc(Nc2nc(-c3cccnc3)c(F)s2)cc1C(F)(F)F` (centres unmarked) [Cmp 218, 5-fluoro-N-(4-(nonan-2-yloxy)-3-(trifluoromethyl)phenyl)-4-(pyridin-3-yl)thiazol-2-amine] cannot be ordered by EC50: less than 1000 nM for the first, less than 1000 nM for the second.

`Fc1ccc(CCCCCc2ccc(Nc3nc(-c4cccnc4)cs3)cc2C(F)(F)F)cc1` [Cmp 216, N-(4-(5-(4-fluorophenyl)pentyl)-3-(trifluoromethyl)phenyl)-4-(pyridin-3-yl)thiazol-2-amine] and `Fc1ccc(CCCCCc2ccc(Nc3nc(-c4cccnc4)c(F)s3)cc2C(F)(F)F)cc1` [Cmp 217, 5-fluoro-N-(4-(5-(4-fluorophenyl)pentyl)-3-(trifluoromethyl)phenyl)-4-(pyridin-3-yl)thiazol-2-amine] cannot be ordered by EC50: less than 1000 nM for the first, less than 1000 nM for the second.

Compared with `CCCCCCCCc1ccc(Nc2nc(-c3ccccc3)c(CC(=O)O)s2)cc1C(F)(F)F` [Cmp 219, 2-(2-(4-octyl-3-(trifluoromethyl)phenylamino)-4-phenylthiazol-5-yl)acetic acid], `Fc1sc(Nc2ccc(CCCCCCCCCl)c(C(F)(F)F)c2)nc1-c1cccnc1` [Cmp 231, N-(4-(8-chlorooctyl)-3-(trifluoromethyl)phenyl)-5-fluoro-4-(pyridin-3-yl)thiazol-2-amine] is lower in EC50: 1000 to 10000 nM for the first, less than 1000 nM for the second. The second is the more potent here.

`CCCCCOCCCc1ccc(Nc2nc(-c3cccnc3)c(F)s2)cc1C(F)(F)F` [Cmp 220, 5-fluoro-N-(4-(3-(pentyloxy)propyl)-3-(trifluoromethyl)phenyl)-4-(pyridin-3-yl)thiazol-2-amine] and `CCCCOCCCCc1ccc(Nc2nc(-c3cccnc3)c(F)s2)cc1C(F)(F)F` [Cmp 234, N-(4-(4-butoxybutyl)-3-(trifluoromethyl)phenyl)-5-fluoro-4-(pyridin-3-yl)thiazol-2-amine] cannot be ordered by EC50: less than 1000 nM for the first, less than 1000 nM for the second.

`CCCOCCC#Cc1ccc(Nc2nc(-c3cccnc3)c(F)s2)cc1C(F)(F)F` [Cmp 222, 5-fluoro-N-(4-(4-propoxybut-1-ynyl)-3-(trifluoromethyl)phenyl)-4-(pyridin-3-yl)thiazol-2-amine] and `CCCCCCC[C@H](C)Oc1ccc(Nc2nc(-c3cccnc3)c(F)s2)cc1C(F)(F)F` [Cmp 232, (S)-5-fluoro-N-(4-(nonan-2-yloxy)-3-(trifluoromethyl)phenyl)-4-(pyridin-3-yl)thiazol-2-amine] cannot be ordered by EC50: less than 1000 nM for the first, less than 1000 nM for the second.

`Fc1sc(Nc2ccc(CCCCCOC3CCCC3)c(C(F)(F)F)c2)nc1-c1cccnc1` [Cmp 230, N-(4-(5-(cyclopentyloxy)pentyl)-3-(trifluoromethyl)phenyl)-5-fluoro-4-(pyridin-3-yl)thiazol-2-amine] and `CCCCCCC[C@@H](C)Oc1ccc(Nc2nc(-c3cccnc3)c(F)s2)cc1C(F)(F)F` [Cmp 233, (R)-5-fluoro-N-(4-(nonan-2-yloxy)-3-(trifluoromethyl)phenyl)-4-(pyridin-3-yl)thiazol-2-amine] cannot be ordered by EC50: less than 1000 nM for the first, less than 1000 nM for the second.
